According to article PMC8949187, “Study of Structure–Activity Relationships of the Marine Alkaloid Fascaplysin and Its Derivatives as Potent Anticancer Agents” (Marine Drugs, 2022):

Tests used:
[1] = test system: HEK-293 cells; experiment: MTT assay, HEK-293 cells; format: cell-based, human; settings: Homo sapiens, HEK293; non-cancer cells; 48 h of treatment; mean ± SD
Experimental: (§1) The human prostate cancer cell lines PC-3, DU145, 22Rv1 and LNCaP, as well as human prostate non-cancer cell line PNT2 were purchased from ATCC (Manassas, VA, USA). HEK 293T (human embryonic kidney cells) and MRC-9 (human fibroblast cells) cell lines were purchased from ECACC (Salisbury, UK). […] Authentication of all cell lines used was recently performed by a commercial service (Multiplexion GmbH, Heidelberg, Germany).
(§2) Cells were cultured as monolayers at 37 °C in a humidified atmosphere with 5% (v/v) CO2 in the correspondent culture medium: 10% FBS/RPMI medium (RPMI medium supplemented with Glutamax^TM-I (gibco® Life technologies^TM, Paisley, UK) containing 10% fetal bovine serum (FBS, gibco® Life technologies^TM) and 1% penicillin/streptomycin (Invitrogen)) for PNT2, LNCaP, 22Rv1, PC-3 and DU145 and cells; 10% FBS/DMEM medium (DMEM medium supplemented with Glutamax^TM-I (gibco® Life technologies^TM) containing 10% FBS and 1% penicillin/streptomycin (gibco® Life technologies^TM)) for MRC-9 and HEK 293 cells. Cells were continuously kept in culture for a maximum of 3 months, and were regularly checked for stable phenotype and mycoplasma infection.
(§3) Effect of the drugs on cell viability in terms of metabolic activity was assessed by MTT assay, as previously reported. Cells were pre-incubated overnight in 96-well plates (6 × 10^3 cells/well in 100 μL/well) in the correspondent culture media. Then, the medium was replaced with fresh 10% FBS/RPMI medium containing the investigated compounds (100 μL/well), and cells were incubated for 48 h, unless otherwise stated. Next, 10 μL/well of (3-(4,5-dimethylthiazol-2-yl)-2,5-diphenyltetrazolium bromide) reagent (MTT, 5 mg/mL) was added. After 2–4 h of incubation, the media was aspirated and the plates were dried. Then, 50 μL/well of DMSO was added to each well and the cell viability was measured using an Infinite F200PRO reader (TECAN, Männedorf, Switzerland). Results were calculated using the GraphPad Prism software v.9.1.1 (GraphPad Software, San Diego, CA, USA) and are represented as IC50 of the compounds calculated using the cells treated with the solvent alone as a control.

[2] = test system: LNCaP cells; experiment: MTT assay, LNCaP cells; format: cell-based, human; settings: Homo sapiens, LNCaP; prostate cancer cells; 48 h of treatment; mean ± SD
Experimental: as §1, §2, §3

[3] = test system: non-cancer cell lines versus cancer cell lines; experiment: Selectivity index from MTT IC50s; format: cell-based, human; settings: for Selectivity index, IC50 (non-prostate) / IC50 (prostate): mean IC50 MRC-9 and HEK-293 versus mean IC50 prostate cancer cell lines plus PNT2; for Selectivity index, IC50 (non-prostate) / IC50 (prostate) / Selectivity index, IC50 (non-cancer) / IC50 (cancer): MTT; for Selectivity index, IC50 (non-cancer) / IC50 (cancer): mean IC50 non-cancer cell lines versus mean IC50 cancer cell lines
Experimental: as §3, with “Next, SAR analysis was performed to identify the structural elements that are beneficial for anticancer activity of the fascaplysin-related molecules. Considering the complex and heterogeneous nature of tumors even within the same patient, we used calculated mean IC50 values of each drug in all prostate cancer cells for further analysis (Figure 2A). To identify the drug candidates with the highest therapeutic potential, the selectivity index (SI) was calculated as mean IC50 in non-cancer cells versus mean IC50 in cancer cells (Figure 2B), or as a mean IC50 in non-cancer (MRC-9 and HEK293) cells versus mean IC50 in prostate cells (cancer PC-3, 22Rv1, DU145, LNCaP and non-cancer PNT2 cells) (Figure 2C). Finally, to estimate the effects on cellular metabolism, we compared the activity evaluated by using trypan blue assay versus MTT assay (Figure 2D). Effect” for “Effect”, “2-4” for “2–4”, “F200PRO” left out

[4] = test system: 22Rv1 cells; experiment: MTT assay, 22Rv1 cells; format: cell-based, human; settings: Homo sapiens, 22Rv1; prostate cancer cells; 48 h of treatment; mean ± SD
Experimental: as §1, §2, §3

[5] = test system: 22Rv1 cells; experiment: Trypan blue-based viability assay; format: cell-based, human; settings: Homo sapiens, 48 h of treatment, mean ± SD, read-out: IC50, trypan blue staining assay
Experimental: The effect of the drugs on cell viability in terms of cellular membrane integrity was evaluated by the trypan blue exclusion assay as described before. In brief, cells (0.2 × 10^6 cells/well) were seeded in 6-well plates and incubated overnight, and the media was replaced with fresh media (1 mL/well) containing drugs at indicated concentrations. After treatment for 48 h, the cells were harvested by trypsinization, stained with trypan blue and the viability was measured using an automatic Beckman Coulter Vi-CELL (Beckman Coulter, Krefeld, Germany). Trypan blue-positive cells were assumed to have damaged cellular membrane (i.e., dead), whereas trypan blue-negative cells were considered to have an intact cellular membrane (i.e., alive).

[6] = test system: PC-3 cells; experiment: MTT assay, PC-3 cells; format: cell-based, human; settings: Homo sapiens, PC-3; prostate cancer cells; 48 h of treatment; mean ± SD
Experimental: as §1, §2, §3

[7] = test system: PNT2 cells; experiment: MTT assay, PNT2 cells; format: cell-based, human; settings: Homo sapiens, PNT2; non-cancer cells; 48 h of treatment; mean ± SD
Experimental: as §1, §2, §3

[8] = test system: 22Rv1 cells; experiment: DNA fragmentation (apoptosis, sub-G1), flow cytometry with PI staining; format: cell-based, human; settings: treated at IC50 (MTT assay) for 48 h, mean ± SD
Experimental: The effects on cell cycle progression and DNA fragmentation were analyzed by flow cytometry using PI staining, as described before. Cells (2 × 10^5 cells/well) were pre-incubated overnight in 6-well plates and then treated with the investigated drugs in fresh culture media (2 mL/well) for 48 h. Cells were harvested by trypsinization, fixed in 70% EtOH, stained with PI solution and analyzed by FACS Calibur (BD Bioscience, San Jose, CA, USA). The results were quantified using BD Bioscience Cell Quest Pro v.5.2.1. software (BD Bioscience). The cells appearing as a sub-G1 population (containing fragmented DNA) were considered to be apoptotic.

[9] = test system: MRC-9 cells; experiment: MTT assay, MRC-9 cells; format: cell-based, human; settings: Homo sapiens, MRC9; non-cancer cells; 48 h of treatment; mean ± SD
Experimental: as §1, §2, §3

[10] = test system: double-stranded calf thymus DNA; experiment: Thiazole orange displacement (DNA intercalation) assay; format: binding; settings: 1 µM calf thymus DNA base pairs, 2 µM thiazole orange; 7 min at room temperature; mean ± SD
Experimental: DNA intercalation activity of the compounds was calculated as an ability to displace thiazole orange (TO) from the double-stranded DNA. For this experiment, a mixture (100 µL) containing 1 µM of double-stranded calf thymus DNA (recalculated as a concentration of base pairs) and 2 µM of thiazole orange (TO) solved in water was prepared. Then, the investigated compounds were added up to final concentrations of 0.39–25 µM; DMSO concentration in the samples was <0.02%. Propidium iodide (PI, positive control) was added up to final concentrations of 0.039–2.5 uM. After 7 min of incubation at room temperature, TO fluorescence was monitored using a multimodal plate reader TECAN Spark (Tecan Group Ltd., Männedorf Switzerland) at the excitation λ = 480 nm; fluorescence was recorded at λ = 530 nm. The bandwidth was 10 nm. The concentration of the drug that caused a decrease in TO fluorescence by 50% (EC50) was determined by approximating the experimental data using a non-linear regression algorithm and calculated using the GraphPad Prism software v.9.1.1 (GraphPad Software, San Diego, CA, USA).

[11] = test system: prostate cancer cell lines (PC-3, 22Rv1, DU145 and LNCaP); experiment: MTT assay, mean over four prostate cancer cell lines; format: cell-based; settings: Homo sapiens; mean of MTT IC50 in PC-3, 22Rv1, DU145 and LNCaP; from Table S1 values; read-out: mean IC50 in cancer cells
Experimental: as §3, with “Next, SAR analysis was performed to identify the structural elements that are beneficial for anticancer activity of the fascaplysin-related molecules. Considering the complex and heterogeneous nature of tumors even within the same patient, we used calculated mean IC50 values of each drug in all prostate cancer cells for further analysis (Figure 2A). To identify the drug candidates with the highest therapeutic potential, the selectivity index (SI) was calculated as mean IC50 in non-cancer cells versus mean IC50 in cancer cells (Figure 2B), or as a mean IC50 in non-cancer (MRC-9 and HEK293) cells versus mean IC50 in prostate cells (cancer PC-3, 22Rv1, DU145, LNCaP and non-cancer PNT2 cells) (Figure 2C). Finally, to estimate the effects on cellular metabolism, we compared the activity evaluated by using trypan blue assay versus MTT assay (Figure 2D). Effect” for “Effect”, “2-4” for “2–4”, “F200PRO” left out

[12] = test system: DU145 cells; experiment: MTT assay, DU145 cells; format: cell-based, human; settings: Homo sapiens, DU-145; prostate cancer cells; 48 h of treatment; mean ± SD
Experimental: as §1, §2, §3

IC50 [2]	IC50 [4]	IC50 [5]	IC50 [6]	% of sub-G1 apoptotic cells (at IC50) [8]	EC50 [10]	IC50 [11]	IC50 [12]	Structure (SMILES)	IC50 [1]	Selectivity index, IC50 (non-prostate) / IC50 (prostate) [3]	Selectivity index, IC50 (non-cancer) / IC50 (cancer) [3]	IC50 [7]	IC50 [9]	Selectivity index (SI), for Figure 2B,C ([3]; both SI definitions (Figure 2B,C))
1250 ± 380 nM	417 ± 60 nM	240 ± 41 nM	10000 ± 6750 nM	23.3±9.19%	700 ± 30 nM	3300 nM	1510 ± 130 nM	O=C1c2ccc(Br)cc2-[n+]2ccc3c([nH]c4ccccc43)c21 [Compound 3, 3-bromofascaplysin]	1010 ± 71 nM	0.59	0.41	727 ± 60 nM	2300 ± 870 nM	
460 ± 76 nM	500 ± 67 nM	482 ± 91 nM	17800 ± 1940 nM	3.63±0.844%	2010 ± 10 nM	5010 nM	1270 ± 206 nM	O=C1c2ccccc2-[n+]2ccc3c([nH]c4cc(Br)ccc43)c21 [Compound 5, 10-Bromofascaplysin]	649 ± 78 nM	2.57	1.41	302 ± 90 nM	20300 ± 5400 nM	

More lines, now with the values behind:

Structure (SMILES)	IC50 [2]	IC50 [4]	IC50 [5]	IC50 [6]	% of sub-G1 apoptotic cells (at IC50) [8]	EC50 [10]	IC50 [11]	IC50 [12]	IC50 [1]	Selectivity index, IC50 (non-prostate) / IC50 (prostate) [3]	Selectivity index, IC50 (non-cancer) / IC50 (cancer) [3]	IC50 [7]	IC50 [9]	Selectivity index (SI), for Figure 2B,C ([3]; both SI definitions (Figure 2B,C))
O=C1c2cc(Br)ccc2-[n+]2ccc3c([nH]c4ccccc43)c21.[Cl-] [Compound 4, 12,13-dihydro-2-bromo-13-oxopyrido[1,2-a:3,4-b’]diindol-5-ium chloride]	349 ± 81 nM	529 ± 69 nM	260 ± 54 nM	3400 ± 1890 nM	8.83±0.7%	1360 ± 30 nM	1550 nM	1900 ± 634 nM	1100 ± 74 nM	1.92	1.34	820 ± 76 nM	4270 ± 662 nM	
O=C1c2ccccc2-[n+]2ccc3c([nH]c4ccc(I)cc43)c21.[Cl-] [Compound 7, 12,13-dihydro-9-iodo-13-oxopyrido[1,2-a:3,4-b’]diindol-5-ium chloride]	171 ± 35 nM	550 ± 71 nM	80 ± 4 nM	3670 ± 200 nM	6.3±0.906%	2140 ± 100 nM	1180 nM	319 ± 75 nM	809 ± 164 nM	0.89	0.53	145 ± 66 nM	924 ± 132 nM	< 1
O=C1c2ccccc2-[n+]2cc(-c3ccccc3)c3c([nH]c4ccccc43)c21.[Cl-] [Compound 16, 12,13-dihydro-7-phenyl-13-oxopyrido[1,2-a:3,4-b’]diindol-5-ium chloride]	141 ± 58 nM	185 ± 39 nM	172 ± 74 nM	391 ± 84 nM	7±1.4%	1160 ± 20 nM	300 nM	491 ± 68 nM	538 ± 69 nM	1.73	1.73	434 ± 21 nM	596 ± 110 nM	
CC[N+](C)(CC)CCC[n+]1c(-c2ccccc2)c2cc(N)ccc2c2ccc(N)cc21 [PI, propidium iodide, reference compound]						4 ± 0.5 nM								
